# Measurements: patent US20110105515A1, “TARGETING THE ONCOPROTEIN NUCLEOPHOSMIN” (President and Fellows of Harvard College, priority 2007, published 2011)
# Tests used:
# [1] = test system: MDA-MB-468; settings: MDA-MB-468 (Breast Cancer), 48 hours, SRB
# [2] = test system: SF-539; settings: SF-539 (CNS Cancer), 48 hours, SRB
# [3] = test system: MALME-3M; settings: MALME-3M (Melanoma), 48 hours, SRB
# [4] = test system: DU-145; settings: DU-145 (Prostate Cancer), 48 hours, SRB
# [5] = test system: HCC-2998; settings: HCC-2998 (Colon Cancer), 48 hours, SRB
# [6] = test system: SK-MEL-2; settings: SK-MEL-2 (Melanoma), 48 hours, SRB
# [7] = test system: UACC62; settings: UACC62 (Melanoma), 48 hours, SRB
# [8] = test system: CCRF-CEM; settings: CCRF-CEM (Leukemia), 48 hours, SRB
# [9] = test system: ACHN; settings: ACHN (Renal Cancer), 48 hours, SRB
# [10] = test system: OVCAR-8; settings: OVCAR-8 (Ovarian Cancer), 48 hours, SRB
# [11] = test system: A498; settings: A498 (Renal Cancer), 48 hours, SRB
# [12] = test system: SF-295; settings: SF-295 (CNS Cancer), 48 hours, SRB
# [13] = test system: OVCAR-4; settings: OVCAR-4 (Ovarian Cancer), 48 hours, SRB
# [14] = test system: SK-MEL-28; settings: SK-MEL-28 (Melanoma), 48 hours, SRB
# [15] = test system: NCI-H226; settings: NCI-H226 (Non-Small Cell Lung Cancer), 48 hours, SRB
# [16] = test system: SN12C; settings: SN12C (Renal Cancer), 48 hours, SRB
# [17] = test system: K-562; settings: K-562 (Leukemia), 48 hours, SRB
# [18] = test system: MDA-MB-231/ATCC; settings: MDA-MB-231/ATCC (Breast Cancer), 48 hours, SRB
# [19] = test system: RPMI-8226; settings: RPMI-8226 (Leukemia), 48 hours, SRB
# [20] = test system: SK-MEL-5; settings: SK-MEL-5 (Melanoma), 48 hours, SRB
# [21] = test system: KM12; settings: KM12 (Colon Cancer), 48 hours, SRB
# [22] = test system: NCI/ADR-RES; settings: NCI/ADR-RES (Breast Cancer), 48 hours, SRB
# [23] = test system: SK-OV-3; settings: SK-OV-3 (Ovarian Cancer), 48 hours, SRB
# [24] = test system: PC-3; settings: PC-3 (Prostate Cancer), 48 hours, SRB
# [25] = test system: NCI-H23; settings: NCI-H23 (Non-Small Cell Lung Cancer), 48 hours, SRB
# [26] = test system: MCF7; settings: MCF7 (Breast Cancer), 48 hours, SRB
# [27] = test system: NCI-H460; settings: NCI-H460 (Non-Small Cell Lung Cancer), 48 hours, SRB
# [28] = test system: EKVX; settings: EKVX (Non-Small Cell Lung Cancer), 48 hours, SRB
# [29] = test system: COLO 205; settings: COLO 205 (Colon Cancer), 48 hours, SRB
# [30] = test system: HOP-62; settings: HOP-62 (Non-Small Cell Lung Cancer), 48 hours, SRB
# [31] = test system: SF-268; settings: SF-268 (CNS Cancer), 48 hours, SRB
compound,measurement,setting,value
CN(C)c1cccc2c(S(=O)(=O)NCCCCCCCCCCOc3ccc4c(c3)[N+]([O-])=C3C4=C[C@@]45NC(=O)C6(CCCN6C4=O)CC5C3(C)C)cccc12 (stereo partly drawn) [Dansyl Analogue],GI50,[1],202 nM
same,TGI,[1],436 nM
same,CC50,[1]; read-out: LC50,941 nM
same,GI50,[2],215 nM
same,TGI,[2],545 nM
same,CC50,[2]; read-out: LC50,1890 nM
same,GI50,[3],426 nM
same,TGI,[3],2110 nM
same,GI50,[4],271 nM
same,TGI,[4],706 nM
same,CC50,[4]; read-out: LC50,2450 nM
same,GI50,[5],946 nM
same,TGI,[5],2320 nM
same,CC50,[5]; read-out: LC50,5490 nM
same,GI50,[6],1070 nM
same,TGI,[6],3230 nM
same,CC50,[6]; read-out: LC50,9820 nM
same,GI50,[7],565 nM
same,TGI,[7],1880 nM
same,CC50,[7]; read-out: LC50,4880 nM
same,GI50,[8],246 nM
same,TGI,[8],>100000 nM
same,CC50,[8]; read-out: LC50,> 100000 nM
same,GI50,[9],736 nM
same,TGI,[9],2700 nM
same,CC50,[9]; read-out: LC50,8560 nM
same,GI50,[10],759 nM
same,TGI,[10],11000 nM
same,CC50,[10]; read-out: LC50,> 100000 nM
same,GI50,[11],250 nM
same,TGI,[11],1010 nM
same,CC50,[11]; read-out: LC50,4400 nM
same,GI50,[12],1730 nM
same,TGI,[12],4630 nM
same,CC50,[12]; read-out: LC50,49400 nM
same,GI50,[13],348 nM
same,TGI,[13],7420 nM
same,CC50,[13]; read-out: LC50,32200 nM
same,GI50,[14],282 nM
same,TGI,[14],678 nM
same,GI50,[15],1030 nM
same,TGI,[15],3030 nM
same,CC50,[15]; read-out: LC50,8930 nM
same,GI50,[16],401 nM
same,TGI,[16],6810 nM
same,CC50,[16]; read-out: LC50,31700 nM
same,TGI,[17],64400 nM
same,GI50,[18],242 nM
same,TGI,[18],584 nM
same,CC50,[18]; read-out: LC50,40500 nM
same,GI50,[19],282 nM
same,TGI,[19],>100000 nM
same,CC50,[19]; read-out: LC50,> 100000 nM
same,GI50,[20],373 nM
same,TGI,[20],1470 nM
same,CC50,[20]; read-out: LC50,3840 nM
same,GI50,[21],1250 nM
same,TGI,[21],2880 nM
same,CC50,[21]; read-out: LC50,6600 nM
same,GI50,[22],28200 nM
same,TGI,[22],>100000 nM
same,CC50,[22]; read-out: LC50,> 100000 nM
same,GI50,[23],1650 nM
same,TGI,[23],4130 nM
same,CC50,[23]; read-out: LC50,10800 nM
same,GI50,[24],334 nM
same,TGI,[24],1820 nM
same,CC50,[24]; read-out: LC50,41700 nM
same,GI50,[25],581 nM
same,TGI,[25],2480 nM
same,CC50,[25]; read-out: LC50,9050 nM
same,GI50,[26],232 nM
same,TGI,[26],724 nM
same,CC50,[26]; read-out: LC50,2610 nM
same,GI50,[27],700 nM
same,TGI,[27],1990 nM
same,CC50,[27]; read-out: LC50,4640 nM
same,GI50,[28],540 nM
same,TGI,[28],3630 nM
same,CC50,[28]; read-out: LC50,37000 nM
same,GI50,[29],328 nM
same,TGI,[29],1140 nM
same,CC50,[29]; read-out: LC50,3860 nM
same,GI50,[30],2380 nM
same,TGI,[30],4640 nM
same,CC50,[30]; read-out: LC50,9020 nM
same,GI50,[31],282 nM
same,TGI,[31],853 nM
same,CC50,[31]; read-out: LC50,3690 nM
[2H]On1c2c(c3ccc4c(c31)C=CC(C)(C)O4)C(OC([2H])([2H])[2H])[C@@]13NC(=O)C4(CCCN4C1=O)CC3C2(C)C (stereo partly drawn) [Deuterated Methanol Adduct],TGI,[1],1780 nM
same,TGI,[2],1460 nM
same,TGI,[3],1560 nM
same,TGI,[4],3120 nM
same,TGI,[5],2010 nM
same,TGI,[6],2280 nM
same,TGI,[7],1920 nM
same,TGI,[8],704 nM
same,TGI,[9],2530 nM
same,TGI,[10],2170 nM
same,TGI,[11],2220 nM
same,TGI,[12],2730 nM
same,TGI,[13],1630 nM
same,TGI,[14],1820 nM
same,TGI,[15],1700 nM
same,TGI,[16],2320 nM
same,TGI,[17],3070 nM
same,TGI,[18],1830 nM
same,TGI,[19],298 nM
same,TGI,[20],2710 nM
same,TGI,[21],2520 nM
same,TGI,[22],9950 nM
same,TGI,[23],2160 nM
same,TGI,[24],2020 nM
same,TGI,[25],2430 nM
same,TGI,[26],1330 nM
same,TGI,[27],3600 nM
same,TGI,[28],1970 nM
same,TGI,[29],1450 nM
same,TGI,[30],7030 nM
same,TGI,[31],3010 nM
